Source: US20190343908A1, “Therapeutic Combination for the Treatment of Cancer” (Nerium Biotechnology Inc., priority 2011, published 2019)

Key:
[1] = system: MDA-MB 231 (human breast cancer); assay: Crystal Violet viability assay, MDA-MB 231; assay type: cell-based; conditions: for CVE 24 h / CVE 48 h / CVE 72 h: Run 3 average
Excerpt: (§1) The Sulforhodamine B and Crystal Violet assays provide information about protein and were used to complement the Methyl-Tetrazolium dye assay. […] It is used for the quantification of cellular proteins of cultured cells. The assay using Crystal Violet, a dye that binds electrostatically to proteins and stains DNA, provides a reliable, simple assay for measuring viability of cells.
(§2) The Methyl Tetrazolium, Sulforhodamine B, and Crystal Violet assays were used to assess cell viabilities. The incubation times were 24 hours, 48 hours, and 72 hours. The Nerium oleander extract Anvirzel™ (a hot water extract of oleander obtained from Salud Integral, Honduras) was tested in concentrations ranging from 0.01 ng/mL to 10 ng/mL.
(§3) Cells were detached by trypsinization (Trypsin-0.25% EDTA, Invitrogen, 25200-072) during the logarithmic phase of culture growth and plated in 96-well plates (18.000 cells/well) (Corning, Costar 359) in a final volume of 200 μl of medium per well. […] The absorbance was measured after 24 hours, 48 hours, and 72 hours of incubation.
[…] Formalin was removed and 0.25% aqueous crystal violet (Sigma, HT901), dissolved in water, was added for 10 minutes at RT. Unbound Crystal Violet was rinsed by washing with water and finally 33% acetic acid was added to dissolve the dye.
(§4) The optical density of each plate was measured on a μQuant spectrophotometer and the data were analyzed with Gen5 software (μQuant Biomolecular Spectrophotometer MQX200 and Gen5™ Microplate Data Collection & Analysis software, BioTek® Instruments. Inc, April 2008). Absorbance was measured at 570 nm for all assays and a second wavelength was measured in order to subtract noise. For the Methyl-Tetrazolium assay this second wavelength was 630 nm and for the Sulforhodamine B and Crystal Violet assays it was 690 nm.

[2] = system: A375 melanoma cancer cell line; assay: Crystal Violet viability assay, A375; assay type: cell-based, human; conditions: for ABSORBANCE: 0.1 μg/mL cisplatin; for Average absorbance, CVE 24 h / Average absorbance, CVE 48 h / Average absorbance, CVE 72 h: A375 Run 1
Excerpt: Three different viability assays were chosen to complement each other and yielded results dependent on concentration and cell line: the Methyl Tetrazolium dye assay, the Sulforhodamine B fluorescent dye assay, and the Crystal Violet dye assay.
as §1, §2, §3
For the Crystal Violet assay, the medium was removed from the 96-well plates, the plates rinsed with PBS (Sigma, P3813) and then the cells were […] by the addition of 10% formalin (MERCK, 1.04003.2500) for 20 minutes at RT. Formalin was removed and 0.25% aqueous crystal violet (Sigma, HT901), dissolved in water, was added for 10 minutes at RT. Unbound Crystal Violet was rinsed by washing with water and finally 33% acetic acid was added to dissolve the dye.
as §4

For `N.N.[Cl][Pt][Cl]` [cisplatin], the “CVE 24 h Average” value ([1]; Run 1, 0.1 μg/ml CDDP) was 0.161, the “CVE 48 h Average” value ([1]; Run 1, 0.1 μg/ml CDDP) was 0.939 and the “CVE 72 h Average” value ([1]; Run 1, 0.1 μg/ml CDDP) was 0.768. For the same compound, the “CVE 24 h Average” value ([1]; Run 1, 1 μg/ml CDDP) was 0.124, the “CVE 48 h Average” value ([1]; Run 1, 1 μg/ml CDDP) was 0.549 and the “CVE 72 h Average” value ([1]; Run 1, 1 μg/ml CDDP) was 0.375. The “CVE 48 h Average” value ([1]; Run 1, 10 μg/ml CDDP) was 0.586, the “CVE 72 h Average” value ([1]; Run 1, 10 μg/ml CDDP) was 0.416 and the “CVE 24 h Average” value ([1]; Run 1, 100 μg/ml CDDP) was 0.098. The “CVE 48 h Average” value ([1]; Run 1, 100 μg/ml CDDP) was 0.504, the “CVE 72 h Average” value ([1]; Run 1, 100 μg/ml CDDP) was 0.538 and the “CVE 24 h Average” value ([1]; Run 2, 0.1 μg/ml CDDP) was 0.118. The “CVE 48 h Average” value ([1]; Run 2, 0.1 μg/ml CDDP) was 0.305, the “CVE 72 h Average” value ([1]; Run 2, 0.1 μg/ml CDDP) was 0.485 and the “CVE 24 h Average” value ([1]; Run 2, 1 μg/ml CDDP) was 0.042. For the same compound, the “CVE 48 h Average” value ([1]; Run 2, 1 μg/ml CDDP) was 0.047, the “CVE 72 h Average” value ([1]; Run 2, 1 μg/ml CDDP) was 0.036 and the “CVE 24 h Average” value ([1]; Run 2, 10 μg/ml CDDP) was 0.125. For the same compound, the “CVE 48 h Average” value ([1]; Run 2, 10 μg/ml CDDP) was 0.27, the “CVE 72 h Average” value ([1]; Run 2, 10 μg/ml CDDP) was 0.301 and the “CVE 24 h Average” value ([1]; Run 2, 100 μg/ml CDDP) was 0.074. For the same compound, the “CVE 48 h Average” value ([1]; Run 2, 100 μg/ml CDDP) was 0.062, the “CVE 72 h Average” value ([1]; Run 2, 100 μg/ml CDDP) was 0.11 and the “CVE 24 h” value ([1]; 0.1 μg/ml CDDP) was 1.198. The “CVE 48 h” value ([1]; 0.1 μg/ml CDDP) was 1.239, the “CVE 72 h” value ([1]; 0.1 μg/ml CDDP) was 1.573 and the “CVE 24 h” value ([1]; 1 μg/ml CDDP) was 0.528. For the same compound, the “CVE 48 h” value ([1]; 1 μg/ml CDDP) was 0.231, the “CVE 72 h” value ([1]; 1 μg/ml CDDP) was 0.144 and the “CVE 24 h” value ([1]; 10 μg/ml CDDP) was 0.693. For the same compound, the “CVE 48 h” value ([1]; 10 μg/ml CDDP) was 0.79, the “CVE 72 h” value ([1]; 10 μg/ml CDDP) was 0.472 and the “CVE 24 h” value ([1]; 100 μg/ml CDDP) was 0.168. For the same compound, the “CVE 48 h” value ([1]; 100 μg/ml CDDP) was 0.154, the “CVE 72 h” value ([1]; 100 μg/ml CDDP) was 0.089 and the ABSORBANCE ([2]; A375, 48 h) was 1.304. The ABSORBANCE ([2]; A375, 72 h) was 0.663, the “Average absorbance, CVE 24 h” value ([2]; 0.1 μg/ml CDDP) was 0.607 and the “Average absorbance, CVE 48 h” value ([2]; 0.1 μg/ml CDDP) was 1.304. For the same compound, the “Average absorbance, CVE 72 h” value ([2]; 0.1 μg/ml CDDP) was 0.663, the “Average absorbance, CVE 24 h” value ([2]; 1 μg/ml CDDP) was 0.277 and the “Average absorbance, CVE 48 h” value ([2]; 1 μg/ml CDDP) was 0.396. For the same compound, the “Average absorbance, CVE 72 h” value ([2]; 1 μg/ml CDDP) was 0.178, the “Average absorbance, CVE 24 h” value ([2]; 10 μg/ml CDDP) was 0.32 and the “Average absorbance, CVE 48 h” value ([2]; 10 μg/ml CDDP) was 0.405. The “Average absorbance, CVE 72 h” value ([2]; 10 μg/ml CDDP) was 0.282, the “Average absorbance, CVE 24 h” value ([2]; 100 μg/ml CDDP) was 0.329 and the “Average absorbance, CVE 48 h” value ([2]; 100 μg/ml CDDP) was 0.288. The “Average absorbance, CVE 72 h” value ([2]; 100 μg/ml CDDP) was 0.311, the “Average absorbance CVE” value ([2]; A375 Run 2, 24 h, 0.1 μg/ml CDDP) was 0.603 and the “Average absorbance CVE” value ([2]; A375 Run 2, 24 h, 1 μg/ml CDDP) was 0.197. For the same compound, the “Average absorbance CVE” value ([2]; A375 Run 2, 24 h, 10 μg/ml CDDP) was 0.246, the “Average absorbance CVE” value ([2]; A375 Run 2, 24 h, 100 μg/ml CDDP) was 0.241 and the “Average absorbance CVE” value ([2]; A375 Run 2, 48 h, 0.1 μg/ml CDDP) was 1.204. For the same compound, the “Average absorbance CVE” value ([2]; A375 Run 2, 48 h, 1 μg/ml CDDP) was 0.605, the “Average absorbance CVE” value ([2]; A375 Run 2, 48 h, 10 μg/ml CDDP) was 0.514 and the “Average absorbance CVE” value ([2]; A375 Run 2, 48 h, 100 μg/ml CDDP) was 0.238. The “Average absorbance CVE” value ([2]; A375 Run 2, 72 h, 0.1 μg/ml CDDP) was 1.312, the “Average absorbance CVE” value ([2]; A375 Run 2, 72 h, 1 μg/ml CDDP) was 1.001 and the “Average absorbance CVE” value ([2]; A375 Run 2, 72 h, 10 μg/ml CDDP) was 0.729. The “Average absorbance CVE” value ([2]; A375 Run 2, 72 h, 100 μg/ml CDDP) was 0.293, the “Average absorbance CVE” value ([2]; A375 Run 3, 24 h, 0.1 μg/ml CDDP) was 0.856 and the “Average absorbance CVE” value ([2]; A375 Run 3, 24 h, 1 μg/ml CDDP) was 0.655. For the same compound, the “Average absorbance CVE” value ([2]; A375 Run 3, 24 h, 10 μg/ml CDDP) was 0.529, the “Average absorbance CVE” value ([2]; A375 Run 3, 24 h, 100 μg/ml CDDP) was 0.224 and the “Average absorbance CVE” value ([2]; A375 Run 3, 48 h, 0.1 μg/ml CDDP) was 0.92. For the same compound, the “Average absorbance CVE” value ([2]; A375 Run 3, 48 h, 1 μg/ml CDDP) was 0.375, the “Average absorbance CVE” value ([2]; A375 Run 3, 48 h, 10 μg/ml CDDP) was 0.309 and the “Average absorbance CVE” value ([2]; A375 Run 3, 48 h, 100 μg/ml CDDP) was 0.252. The “Average absorbance CVE” value ([2]; A375 Run 3, 72 h, 0.1 μg/ml CDDP) was 0.961, the “Average absorbance CVE” value ([2]; A375 Run 3, 72 h, 1 μg/ml CDDP) was 0.388 and the “Average absorbance CVE” value ([2]; A375 Run 3, 72 h, 10 μg/ml CDDP) was 0.344. For the same compound, the “Average absorbance CVE” value ([2]; A375 Run 3, 72 h, 100 μg/ml CDDP) was 0.24.
